Measurements as given in ChEMBL document CHEMBL1201862, “PubChem BioAssay data set” (2004).
Activity calls are given as the source filed them.

Legend:
[1] = biological target: T1, Rac GTPase-activating protein 1 (Homo sapiens, UniProt Q9H0H5); assay: MgcRacGAP GTPase-activating activity inhibitors, confirmation, biochemical, ADP Hunter fluorescence, primary and confirmatory (AID 624330); format: functional
T1 sequence (Q9H0H5 whole entry): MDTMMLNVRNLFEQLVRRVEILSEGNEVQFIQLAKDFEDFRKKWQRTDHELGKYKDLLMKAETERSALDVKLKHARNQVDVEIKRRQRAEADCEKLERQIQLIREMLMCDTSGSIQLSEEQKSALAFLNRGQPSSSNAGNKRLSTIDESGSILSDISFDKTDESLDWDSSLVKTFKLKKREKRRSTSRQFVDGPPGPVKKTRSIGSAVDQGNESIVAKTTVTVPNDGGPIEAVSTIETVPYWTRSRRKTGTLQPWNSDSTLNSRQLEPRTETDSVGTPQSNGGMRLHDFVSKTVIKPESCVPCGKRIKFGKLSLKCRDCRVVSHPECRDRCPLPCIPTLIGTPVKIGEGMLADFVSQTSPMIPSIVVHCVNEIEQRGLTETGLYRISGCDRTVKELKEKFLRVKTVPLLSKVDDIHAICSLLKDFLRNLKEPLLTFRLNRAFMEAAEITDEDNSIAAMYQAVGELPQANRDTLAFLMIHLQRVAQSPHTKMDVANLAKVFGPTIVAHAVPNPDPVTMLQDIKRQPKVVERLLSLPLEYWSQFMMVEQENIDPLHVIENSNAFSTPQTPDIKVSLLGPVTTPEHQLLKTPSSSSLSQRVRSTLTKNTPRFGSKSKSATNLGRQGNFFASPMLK

[2] = biological target: Heat shock protein HSP 90-alpha (Homo sapiens, UniProt P07900); assay: Luminescence-based dose response biochemical high throughput screening assay for inhibitors of the Heat Shock Protein 90 (HSP90). [Related pubchem assays: 1831 (Summary AID.), 1846 (Confirmation screen.), 1789 (Primary screen.)]
Genome polyprotein = Genome polyprotein (dengue virus type 2, UniProt P29990); assay: Dengue-2 NS5 methyltransferase inhibitors, primary screen, biochemical, confirmation dose response (AID 588689); format: functional
Genome polyprotein, sequence (P29990 2492-3391 limits assumed): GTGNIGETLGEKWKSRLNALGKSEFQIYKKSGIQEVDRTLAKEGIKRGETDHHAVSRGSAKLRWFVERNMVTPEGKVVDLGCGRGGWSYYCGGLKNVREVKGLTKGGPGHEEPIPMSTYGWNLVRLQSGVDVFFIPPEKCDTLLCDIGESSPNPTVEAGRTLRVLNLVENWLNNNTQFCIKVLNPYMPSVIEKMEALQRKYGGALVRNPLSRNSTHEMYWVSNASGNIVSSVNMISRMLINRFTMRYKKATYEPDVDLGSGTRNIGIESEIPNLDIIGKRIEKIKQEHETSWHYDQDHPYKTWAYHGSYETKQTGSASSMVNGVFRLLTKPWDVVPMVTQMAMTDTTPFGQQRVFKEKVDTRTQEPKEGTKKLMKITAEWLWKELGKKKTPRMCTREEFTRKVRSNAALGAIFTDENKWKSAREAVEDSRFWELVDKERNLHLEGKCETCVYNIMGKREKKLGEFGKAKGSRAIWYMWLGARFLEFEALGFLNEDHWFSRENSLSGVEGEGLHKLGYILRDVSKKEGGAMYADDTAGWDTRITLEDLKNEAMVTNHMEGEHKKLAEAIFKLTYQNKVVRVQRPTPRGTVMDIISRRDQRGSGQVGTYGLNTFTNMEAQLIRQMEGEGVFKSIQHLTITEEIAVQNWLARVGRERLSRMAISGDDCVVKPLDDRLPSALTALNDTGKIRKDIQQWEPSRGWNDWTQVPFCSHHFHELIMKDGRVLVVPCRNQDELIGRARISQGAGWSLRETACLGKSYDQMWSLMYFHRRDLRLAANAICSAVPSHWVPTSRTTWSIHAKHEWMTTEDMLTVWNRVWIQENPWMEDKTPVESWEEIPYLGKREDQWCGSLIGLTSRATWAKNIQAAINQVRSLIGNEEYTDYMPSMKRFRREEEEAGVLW

[3] = biological target: T2, RNA-binding protein pos-1 (Caenorhabditis elegans, UniProt G5EF15); assay: inhibitors of POS-1/mex-3 RNA binding, dose response, biochemical, fluorescence polarization (AID 1964);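 note: purified POS-1 fused to maltose binding protein made in E. coli; potency of compounds blocking POS-1 binding to fluorescent RNA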
T2 sequence (G5EF15 whole entry): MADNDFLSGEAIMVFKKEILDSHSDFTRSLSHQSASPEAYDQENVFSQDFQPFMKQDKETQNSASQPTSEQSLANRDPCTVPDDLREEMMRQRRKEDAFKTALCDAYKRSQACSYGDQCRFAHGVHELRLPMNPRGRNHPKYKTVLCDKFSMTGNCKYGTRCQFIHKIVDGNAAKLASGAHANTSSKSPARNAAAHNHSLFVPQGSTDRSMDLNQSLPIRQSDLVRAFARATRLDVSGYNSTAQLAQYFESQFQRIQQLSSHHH

[4] = biological target: Cyclin-dependent kinase 8 (Homo sapiens, UniProt P49336); assay: Navigating the Kinome. Panel member name: CDK8; format: functional
[5] = biological target: Leukocyte tyrosine kinase receptor (Homo sapiens, UniProt P29376); assay: Navigating the Kinome. Panel member name: LTK; format: functional
[6] = biological target: Serine/threonine-protein kinase MRCK alpha (Homo sapiens, UniProt Q5VT25); format: functional
[7] = biological target: Serine/threonine-protein kinase pim-1 (Homo sapiens, UniProt P11309); format: functional
[8] = biological target: Serine/threonine-protein kinase PLK3 (Homo sapiens, UniProt Q9H4B4); format: functional
[9] = biological target: Receptor-type tyrosine-protein kinase FLT3 (Homo sapiens, UniProt P36888); format: functional;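 note: FLT3 was tested as one member of a kinome-wide kinase panel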
[10] = biological target: Non-receptor tyrosine-protein kinase TYK2 (Homo sapiens, UniProt P29597); format: functional
[11] = biological target: Dual specificity tyrosine-phosphorylation-regulated kinase 1B (Homo sapiens, UniProt Q9Y463); assay: Navigating the Kinome. Panel member name: DYRK1B; format: functional
[12] = biological target: Serine/threonine-protein kinase Chk1 (Homo sapiens, UniProt O14757); format: functional;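 note: measured as one member of a kinome-wide kinase profiling panel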
[13] = biological target: Dual specificity protein kinase CLK2 (Homo sapiens, UniProt P49760); format: functional
[14] = biological target: Vascular endothelial growth factor receptor 1 (Homo sapiens, UniProt P17948); format: functional;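 note: measured within a kinome-wide profiling panel, FLT1 as the panel member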
[15] = biological target: Serine/threonine-protein kinase 17A (Homo sapiens, UniProt Q9UEE5); format: functional
Misshapen-like kinase 1 = Misshapen-like kinase 1 (Homo sapiens, UniProt Q8N4C8); format: functional;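 note: kinome panel screen with MINK as the panel member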
[16] = biological target: cGMP-dependent protein kinase 1 (Homo sapiens, UniProt Q13976); format: functional;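 note: value from a kinome panel screen with PRKG1 as the panel member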
cGMP-dependent protein kinase 1, sequence (Q13976 whole entry): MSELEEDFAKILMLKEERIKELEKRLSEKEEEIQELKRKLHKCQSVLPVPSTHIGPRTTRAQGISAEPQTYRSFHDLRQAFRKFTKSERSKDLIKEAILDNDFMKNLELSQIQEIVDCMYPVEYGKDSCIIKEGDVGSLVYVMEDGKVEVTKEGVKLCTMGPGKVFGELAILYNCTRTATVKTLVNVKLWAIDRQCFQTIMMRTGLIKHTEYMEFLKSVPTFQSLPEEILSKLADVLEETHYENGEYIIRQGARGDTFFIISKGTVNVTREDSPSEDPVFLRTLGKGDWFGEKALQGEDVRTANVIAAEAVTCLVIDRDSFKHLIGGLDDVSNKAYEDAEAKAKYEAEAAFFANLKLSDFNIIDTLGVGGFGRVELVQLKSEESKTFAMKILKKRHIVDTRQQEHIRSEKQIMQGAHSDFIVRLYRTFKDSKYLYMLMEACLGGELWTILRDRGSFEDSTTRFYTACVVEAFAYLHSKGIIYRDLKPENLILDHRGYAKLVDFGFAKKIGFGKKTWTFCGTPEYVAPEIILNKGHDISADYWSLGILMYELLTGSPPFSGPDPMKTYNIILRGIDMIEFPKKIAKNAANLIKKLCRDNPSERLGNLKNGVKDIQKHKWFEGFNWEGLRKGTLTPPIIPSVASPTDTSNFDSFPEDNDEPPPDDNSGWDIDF

[17] = biological target: Tyrosine-protein kinase receptor TYRO3 (Homo sapiens, UniProt Q06418); format: functional;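 note: TYRO3 value obtained as one member of a kinome-wide profiling panel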
Tyrosine-protein kinase receptor TYRO3, sequence (Q06418 whole entry): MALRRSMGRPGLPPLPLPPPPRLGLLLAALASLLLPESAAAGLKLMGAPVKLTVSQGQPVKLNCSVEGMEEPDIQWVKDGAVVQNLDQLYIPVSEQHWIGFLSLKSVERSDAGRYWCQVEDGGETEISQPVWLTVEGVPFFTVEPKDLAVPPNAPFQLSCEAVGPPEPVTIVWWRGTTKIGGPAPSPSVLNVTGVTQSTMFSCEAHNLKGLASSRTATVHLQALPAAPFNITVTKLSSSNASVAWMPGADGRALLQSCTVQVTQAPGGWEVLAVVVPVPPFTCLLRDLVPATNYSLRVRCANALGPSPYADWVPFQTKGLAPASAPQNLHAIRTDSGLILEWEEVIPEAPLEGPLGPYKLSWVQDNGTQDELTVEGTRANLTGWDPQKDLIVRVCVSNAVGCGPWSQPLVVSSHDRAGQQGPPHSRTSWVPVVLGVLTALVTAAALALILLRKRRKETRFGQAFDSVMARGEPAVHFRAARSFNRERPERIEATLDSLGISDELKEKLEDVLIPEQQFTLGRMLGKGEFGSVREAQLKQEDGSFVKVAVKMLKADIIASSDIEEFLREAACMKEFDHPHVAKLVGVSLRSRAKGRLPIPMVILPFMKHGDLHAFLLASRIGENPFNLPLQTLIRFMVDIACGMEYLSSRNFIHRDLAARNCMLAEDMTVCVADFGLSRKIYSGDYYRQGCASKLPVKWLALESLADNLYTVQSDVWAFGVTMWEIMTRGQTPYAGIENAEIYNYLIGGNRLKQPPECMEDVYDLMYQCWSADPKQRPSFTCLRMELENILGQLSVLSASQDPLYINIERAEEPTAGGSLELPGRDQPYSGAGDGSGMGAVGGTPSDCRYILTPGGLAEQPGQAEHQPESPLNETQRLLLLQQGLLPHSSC

[18] = biological target: MAP kinase-activated protein kinase 3 (Homo sapiens, UniProt Q16644); format: functional;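 note: value comes from a kinome-wide profiling panel in which MAPKAPK3 is one of the panel members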
MAP kinase-activated protein kinase 3, sequence (Q16644 whole entry): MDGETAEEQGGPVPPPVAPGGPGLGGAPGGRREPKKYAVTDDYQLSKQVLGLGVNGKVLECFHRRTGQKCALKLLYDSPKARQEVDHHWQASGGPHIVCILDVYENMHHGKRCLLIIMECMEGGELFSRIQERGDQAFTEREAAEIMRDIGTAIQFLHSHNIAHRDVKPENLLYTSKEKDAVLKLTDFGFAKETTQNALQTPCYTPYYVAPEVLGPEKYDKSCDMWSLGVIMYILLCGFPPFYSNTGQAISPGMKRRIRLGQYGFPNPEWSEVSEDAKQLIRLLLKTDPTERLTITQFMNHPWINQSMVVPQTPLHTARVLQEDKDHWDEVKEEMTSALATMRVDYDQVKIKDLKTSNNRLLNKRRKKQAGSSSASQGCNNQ

[19] = biological target: Homeodomain-interacting protein kinase 2 (Homo sapiens, UniProt Q9H2X6); format: functional;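 note: measured within a kinome-wide kinase profiling panel, HIPK2 being one panel member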
[20] = biological target: Fibroblast growth factor receptor 3 (Homo sapiens, UniProt P22607); format: functional
[21] = biological target: Dual specificity tyrosine-phosphorylation-regulated kinase 3 (Homo sapiens, UniProt O43781); format: functional;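 note: measured as one member of a broad kinase panel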
[22] = biological target: Tyrosine-protein kinase Srms (Homo sapiens, UniProt Q9H3Y6); format: functional;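 note: SRMS measured as one member of a kinome-wide kinase profiling panel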
Tyrosine-protein kinase Srms, sequence (Q9H3Y6 whole entry): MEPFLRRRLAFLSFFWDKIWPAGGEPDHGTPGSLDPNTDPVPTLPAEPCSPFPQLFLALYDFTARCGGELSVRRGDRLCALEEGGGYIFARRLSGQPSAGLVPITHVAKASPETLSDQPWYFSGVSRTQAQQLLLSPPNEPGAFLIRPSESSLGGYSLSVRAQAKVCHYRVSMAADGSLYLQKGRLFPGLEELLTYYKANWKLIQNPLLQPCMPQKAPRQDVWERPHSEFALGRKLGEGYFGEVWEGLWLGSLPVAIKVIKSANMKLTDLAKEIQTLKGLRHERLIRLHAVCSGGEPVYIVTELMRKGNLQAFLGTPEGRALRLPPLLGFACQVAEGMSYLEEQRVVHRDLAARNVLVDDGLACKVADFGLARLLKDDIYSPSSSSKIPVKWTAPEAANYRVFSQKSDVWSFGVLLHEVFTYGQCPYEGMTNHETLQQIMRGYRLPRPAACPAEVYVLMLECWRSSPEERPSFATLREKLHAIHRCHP

[23] = biological target: Cell division cycle 7-related protein kinase (Homo sapiens, UniProt O00311); format: functional;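 note: value obtained from a kinome-wide kinase panel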
[24] = biological target: Phosphorylase b kinase gamma catalytic chain, liver/testis isoform (Homo sapiens, UniProt P15735); format: functional;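 note: PHKG2 measured as one member of a kinome-wide kinase panel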
Phosphorylase b kinase gamma catalytic chain, liver/testis isoform, sequence (P15735 whole entry, canonical isoform): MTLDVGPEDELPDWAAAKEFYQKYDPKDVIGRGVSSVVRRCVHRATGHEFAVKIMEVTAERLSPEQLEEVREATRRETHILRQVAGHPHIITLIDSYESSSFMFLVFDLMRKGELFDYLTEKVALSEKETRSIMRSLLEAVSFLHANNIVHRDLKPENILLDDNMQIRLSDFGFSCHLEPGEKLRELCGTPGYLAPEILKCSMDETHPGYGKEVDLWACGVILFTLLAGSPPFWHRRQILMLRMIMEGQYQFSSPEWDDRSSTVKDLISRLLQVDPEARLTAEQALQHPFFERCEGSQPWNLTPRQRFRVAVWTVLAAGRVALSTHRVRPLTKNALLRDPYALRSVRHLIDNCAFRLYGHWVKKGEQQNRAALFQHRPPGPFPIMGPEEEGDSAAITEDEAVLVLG

[25] = biological target: Cyclin-dependent kinase 1 (Homo sapiens, UniProt P06493); format: functional;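 note: Kinome-wide panel profiling, with the target listed as panel member CDC2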
[26] = biological target: STE20-like serine/threonine-protein kinase (Homo sapiens, UniProt Q9H2G2); format: functional
[27] = biological target: Calcium/calmodulin-dependent protein kinase type II subunit beta (Homo sapiens, UniProt Q13554); format: functional
Calcium/calmodulin-dependent protein kinase type II subunit beta, sequence (Q13554 whole entry): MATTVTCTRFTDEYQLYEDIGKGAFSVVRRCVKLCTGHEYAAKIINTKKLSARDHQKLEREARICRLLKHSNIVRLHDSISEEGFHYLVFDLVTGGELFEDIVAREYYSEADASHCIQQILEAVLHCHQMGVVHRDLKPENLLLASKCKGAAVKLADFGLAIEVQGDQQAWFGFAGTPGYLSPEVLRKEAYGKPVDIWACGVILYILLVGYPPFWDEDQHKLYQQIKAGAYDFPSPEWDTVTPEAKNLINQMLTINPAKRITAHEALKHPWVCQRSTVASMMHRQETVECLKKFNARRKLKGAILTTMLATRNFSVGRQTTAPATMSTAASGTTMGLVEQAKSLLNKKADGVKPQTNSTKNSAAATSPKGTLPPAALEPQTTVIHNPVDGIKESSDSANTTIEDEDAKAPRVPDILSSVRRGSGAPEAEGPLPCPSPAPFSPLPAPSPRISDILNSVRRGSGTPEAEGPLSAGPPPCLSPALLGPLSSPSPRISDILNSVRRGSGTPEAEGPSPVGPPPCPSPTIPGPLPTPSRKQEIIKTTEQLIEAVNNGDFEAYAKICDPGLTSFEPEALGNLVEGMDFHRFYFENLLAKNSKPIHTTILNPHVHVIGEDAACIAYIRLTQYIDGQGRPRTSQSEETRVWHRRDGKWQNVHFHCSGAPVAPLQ

[28] = biological target: Mitogen-activated protein kinase 9 (Homo sapiens, UniProt P45984); format: functional;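 note: value from a kinome panel profiling assay, MAPK9 panel entry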
[29] = biological target: Macrophage colony-stimulating factor 1 receptor (Homo sapiens, UniProt P07333); format: functional;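 note: value comes from the Navigating the Kinome screening panel, CSF1R member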
[30] = biological target: cAMP-dependent protein kinase catalytic subunit PRKX (Homo sapiens, UniProt P51817); format: functional
cAMP-dependent protein kinase catalytic subunit PRKX, sequence (P51817 whole entry): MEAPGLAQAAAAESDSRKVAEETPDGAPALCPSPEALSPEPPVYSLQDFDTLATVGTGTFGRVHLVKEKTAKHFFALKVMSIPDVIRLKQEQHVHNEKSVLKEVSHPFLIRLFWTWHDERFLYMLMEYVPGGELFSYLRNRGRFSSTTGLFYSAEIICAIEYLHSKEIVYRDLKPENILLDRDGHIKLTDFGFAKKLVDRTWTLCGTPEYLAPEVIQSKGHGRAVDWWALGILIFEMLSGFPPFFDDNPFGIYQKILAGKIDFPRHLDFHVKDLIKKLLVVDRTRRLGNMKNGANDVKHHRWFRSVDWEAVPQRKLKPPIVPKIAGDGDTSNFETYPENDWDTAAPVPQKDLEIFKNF

Cc1ccc(/C=C2/C(=O)c3ccc(C(=O)O)cc3C2=O)o1
IC50 [1]: 294 µM (active) | IC50 [2]: 1.65 µM (active) | IC50 (Genome polyprotein): 40.1 µM (active) | EC50 [3]: 87.7 µM (active)

Clc1cc(NC2CCCCC2)nc(-c2c[nH]c3ncccc23)n1
Ki [4]: 3.16 µM (active) | Ki [5]: > 2.51 µM (inactive) | Ki [6]: 39.8 nM (active) | Ki [7]: > 3.98 µM (inactive) | Ki [8]: 3.98 µM (active) | Ki [9]: > 2 µM (inactive) | Ki [10]: 1.58 µM (active) | Ki [11]: 501 nM (active) | Ki [12]: 1 µM (active) | Ki [13]: > 3.16 µM (inactive) | Ki [14]: > 398 nM (inactive) | Ki [15]: > 2.51 µM (inactive) | Ki (Misshapen-like kinase 1): 6.31 nM (active) | Ki [16]: 501 nM (active) | Ki [17]: > 2.51 µM (inactive) | Ki [18]: > 10 µM (inactive) | Ki [19]: 631 nM (active) | Ki [20]: > 2 µM (inactive) | Ki [21]: 100 nM (active) | Ki [22]: > 1.58 µM (inactive) | Ki [23]: 2 nM (active) | Ki [24]: > 5.01 µM (inactive) | Ki [25]: 3.16 µM (active) | Ki [26]: 501 nM (active) | Ki [27]: 3.16 µM (active) | Ki [28]: 3.16 µM (active) | Ki [29]: > 1.58 µM (inactive) | Ki [30]: 501 nM (active)
